Where “and” joins values, the source holds several entries; their conditions need not be identical. Identical values can stand only once. Inconclusive results are not listed.
Tested on: T. cruzi beta-gal in NIH3T3, GalScreen luminescence, 90 h
Assay: inhibitors of Trypanosoma cruzi host-cell infection, confirmation, beta-gal luminescence, NIH3T3 host cells (AID 2630)

| Structure (SMILES) | EC50 |
| --- | --- |
| CN(Cc1ccccc1)C(=O)C1CCCN(Cc2cccc(Cl)c2)C1 (configuration not stated) | 231 nM and 34.7 nM |
| CC(C)Oc1cccc(C(=O)C2CCCN(Cc3cnn(C(C)C)c3)C2)c1 (configuration not stated) | 68 nM and 16.5 nM |

From PubChem BioAssay AID2630 (Broad Institute, 2010)
